Experimental findings from patent US10858362B2, “Imidazopyrazinones as PDE1 inhibitors” (H. Lundbeck A/S, priority 2015, dated 2020) are described below.

As a reminder, the IC50 is the midpoint of a concentration-inhibition curve. What is called inhibition is the relative decrease from the control value, in per cent.

Molecules are shown by their SMILES.

Type in all cases: biochemical
In one assay the target is PDE1A (Homo sapiens (Human), UniProt P54750). In words: PDE1 inhibition assay, PDE1A. The settings on record: for IC50: 15 nM tritium labelled cAMP. As to the method: Reactions were initiated by addition of the cyclic nucleotide substrate, and reactions were allowed to proceed for 1 h at room temperature before being terminated through mixing with 20 μL (0.2 mg) yttrium silicate SPA beads (PerkinElmer).
PDE1A, sequence (P54750 whole entry): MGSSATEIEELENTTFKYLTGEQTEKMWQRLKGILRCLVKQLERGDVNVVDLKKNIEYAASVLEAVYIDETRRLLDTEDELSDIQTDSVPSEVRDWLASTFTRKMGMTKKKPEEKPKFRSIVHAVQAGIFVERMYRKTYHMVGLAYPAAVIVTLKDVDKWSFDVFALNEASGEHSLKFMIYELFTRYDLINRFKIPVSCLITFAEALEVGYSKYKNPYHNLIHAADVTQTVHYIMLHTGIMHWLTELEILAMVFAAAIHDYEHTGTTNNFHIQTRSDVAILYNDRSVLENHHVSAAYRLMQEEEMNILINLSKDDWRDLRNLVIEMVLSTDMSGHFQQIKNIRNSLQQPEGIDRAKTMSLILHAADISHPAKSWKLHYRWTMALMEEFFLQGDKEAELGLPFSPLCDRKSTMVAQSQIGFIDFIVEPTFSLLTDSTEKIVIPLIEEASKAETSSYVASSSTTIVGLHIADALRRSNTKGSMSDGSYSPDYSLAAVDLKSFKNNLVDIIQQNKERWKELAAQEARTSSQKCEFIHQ

The target of another assay is PDE1B (Homo sapiens (Human), UniProt Q01064). In words: PDE1 inhibition assay, PDE1B. The settings on record: for IC50: 15 nM tritium labelled cAMP. As to the method:
(§1) Reactions were initiated by addition of the cyclic nucleotide substrate, and reactions were allowed to proceed for 1 h at room temperature before being terminated through mixing with 20 μL (0.2 mg) yttrium silicate SPA beads (PerkinElmer). The beads were allowed to settle for 1 h in the dark before the plates were counted in a Wallac 1450 Microbeta counter.

The next assay concerns the target PDE1C (Homo sapiens (Human), UniProt Q14123). Nature of the assay: PDE1 inhibition assay, PDE1C. To be noted: for IC50: 15 nM tritium labelled cAMP. The method, then: as §1
The target of the next assay is PDE9 (Homo sapiens (Human), UniProt O76083). In words: PDE9 inhibition assay. The method, then:
A PDE9 assay may for example, be performed as follows: The assay is performed in 60 μL samples containing a fixed amount of the relevant PDE enzyme (sufficient to convert 20-25% of the cyclic nucleotide substrate), a buffer (50 mM HEPES7.6; 10 mM MgCl2; 0.02% Tween20), 0.1 mg/ml BSA, 225 pCi of ^3H-labelled cyclic nucleotide substrate, tritium labeled cAMP to a final concentration of 5 nM and varying amounts of inhibitors. Reactions are initiated by addition of the cyclic nucleotide substrate, and reactions are allowed to proceed for one hr at room temperature before being terminated through mixing with 15 μL 8 mg/mL yttrium silicate SPA beads (Amersham). The beads are allowed to settle for one hr in the dark before the plates are counted in a Wallac 1450 Microbeta counter.
In the context of the present invention the assay was performed in 60 μL assay buffer (50 mM HEPES pH 7.6; 10 mM MgCl2; 0.02% Tween20) containing enough PDE9 to convert 20-25% of 10 nM ^3H-cAMP and varying amounts of inhibitors. Following a 1 hr incubation the reactions were terminated by addition of 15 μL 8 mg/mL yttrium silicate SPA beads (Amersham). The beads were allowed to settle for one hr in the dark before the plates were counted in a Wallac 1450 Microbeta counter.

PDE9, sequence (O76083 whole entry): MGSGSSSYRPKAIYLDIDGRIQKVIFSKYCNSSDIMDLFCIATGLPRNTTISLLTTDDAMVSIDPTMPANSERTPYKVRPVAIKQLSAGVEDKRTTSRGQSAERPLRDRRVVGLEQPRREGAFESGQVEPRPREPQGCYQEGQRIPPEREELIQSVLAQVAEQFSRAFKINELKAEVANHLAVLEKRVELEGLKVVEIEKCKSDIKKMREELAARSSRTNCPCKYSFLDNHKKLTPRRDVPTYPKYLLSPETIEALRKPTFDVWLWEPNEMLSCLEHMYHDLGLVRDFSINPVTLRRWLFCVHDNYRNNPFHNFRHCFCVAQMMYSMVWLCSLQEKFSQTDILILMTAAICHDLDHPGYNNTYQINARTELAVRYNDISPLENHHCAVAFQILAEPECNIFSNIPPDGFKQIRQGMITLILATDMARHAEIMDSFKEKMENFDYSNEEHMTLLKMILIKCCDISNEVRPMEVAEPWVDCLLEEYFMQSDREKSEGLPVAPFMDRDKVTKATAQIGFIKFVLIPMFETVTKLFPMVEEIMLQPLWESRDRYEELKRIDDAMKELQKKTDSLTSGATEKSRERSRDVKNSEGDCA
PDE1C, sequence (Q14123 whole entry): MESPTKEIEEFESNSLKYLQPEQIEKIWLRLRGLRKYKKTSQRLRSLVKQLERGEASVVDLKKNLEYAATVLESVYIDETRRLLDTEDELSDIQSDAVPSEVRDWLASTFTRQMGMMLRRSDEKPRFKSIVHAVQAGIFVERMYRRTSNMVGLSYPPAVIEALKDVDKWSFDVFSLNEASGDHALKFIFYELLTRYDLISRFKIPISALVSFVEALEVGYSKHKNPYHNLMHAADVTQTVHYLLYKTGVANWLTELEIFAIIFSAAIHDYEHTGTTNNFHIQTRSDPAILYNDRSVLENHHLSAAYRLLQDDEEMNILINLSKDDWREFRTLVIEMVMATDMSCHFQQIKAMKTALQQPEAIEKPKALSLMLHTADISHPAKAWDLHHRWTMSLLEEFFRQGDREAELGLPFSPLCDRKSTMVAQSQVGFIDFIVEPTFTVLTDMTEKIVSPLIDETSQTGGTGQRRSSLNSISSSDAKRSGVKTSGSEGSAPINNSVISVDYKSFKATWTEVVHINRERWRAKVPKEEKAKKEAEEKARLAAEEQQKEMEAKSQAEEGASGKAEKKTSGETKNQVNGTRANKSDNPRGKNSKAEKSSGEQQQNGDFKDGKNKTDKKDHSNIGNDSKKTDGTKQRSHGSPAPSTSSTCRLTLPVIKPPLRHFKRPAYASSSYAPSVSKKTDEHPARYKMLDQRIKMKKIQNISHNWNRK
PDE1B, sequence (Q01064 whole entry): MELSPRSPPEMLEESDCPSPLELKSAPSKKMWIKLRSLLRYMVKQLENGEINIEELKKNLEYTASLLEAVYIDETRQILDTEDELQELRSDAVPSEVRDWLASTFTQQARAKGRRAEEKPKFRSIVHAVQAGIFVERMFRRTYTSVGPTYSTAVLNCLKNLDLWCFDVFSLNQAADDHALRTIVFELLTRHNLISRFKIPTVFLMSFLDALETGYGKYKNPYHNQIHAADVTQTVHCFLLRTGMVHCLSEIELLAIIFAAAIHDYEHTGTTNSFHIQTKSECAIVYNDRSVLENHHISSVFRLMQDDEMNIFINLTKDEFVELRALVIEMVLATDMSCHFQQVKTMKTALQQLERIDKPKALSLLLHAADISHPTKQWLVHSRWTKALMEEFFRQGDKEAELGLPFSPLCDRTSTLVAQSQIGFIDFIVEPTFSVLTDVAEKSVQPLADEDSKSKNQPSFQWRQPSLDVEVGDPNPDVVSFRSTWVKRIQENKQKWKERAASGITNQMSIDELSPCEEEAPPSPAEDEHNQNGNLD

Regarding `Cc1cn2c([C@@H]3CCCCO3)ncc2c(=O)n1Cc1cccc(F)c1` (single isomer, unassigned; isomer 1) [30, isomer 1], the “PDE1A, % inhibition (at 1 μM)” value at PDE1A is 20%. Besides, the IC50 at PDE1B came to 615 nM; against PDE1C it was 225 nM. In addition, the “% inhibition of PDE9 at 10 microM” value on PDE9 was −11%.
On to `Cc1cn2c([C@@H]3CCOC3)ncc2c(=O)n1Cc1cccc(F)c1` (single isomer, unassigned; isomer 1) [31, isomer 1], for which the IC50 against PDE1A came out at 337 nM; on PDE1B it was 106 nM; at PDE1C, 27 nM. Moreover, the “% inhibition of PDE9 at 10 microM” value on PDE9 is recorded as −1%.
The matching figures for `Cc1cn2c([C@]3(C)CCOC3)ncc2c(=O)n1Cc1cccc(F)c1` (single isomer, unassigned; isomer 1) [32, isomer 1]: 257 nM, 122 nM, 22 nM and −1%.
The matching figures for `Cc1cn2c([C@@H]3C[C@@H]3C)ncc2c(=O)n1Cc1cccc(F)c1` (single isomer, unassigned; isomer 1) [35, isomer 1]: 193 nM, 75 nM, 19 nM and −11%.
`Cc1cn2c([C@@H]3CCO[C@@H]3C)ncc2c(=O)n1Cc1cccc(F)c1` (single isomer, unassigned; isomer 1) [36, isomer 1]: the results for the IC50 against PDE1A and at PDE1B were 152 nM and 59 nM, respectively. At PDE9, the “% inhibition of PDE9 at 10 microM” value came out at 3%.
The compound `Cc1cn2c(C3C[C@@H]3F)ncc2c(=O)n1Cc1cccc(F)c1` (single isomer, unassigned; isomer 1) [37, isomer 1] registered an IC50 against PDE1C of 345 nM. Moreover, at PDE9, the “% inhibition of PDE9 at 10 microM” value is recorded as −2%.
Take `Cc1cn2c(C3C[C@H]3F)ncc2c(=O)n1Cc1cccc(F)c1` (single isomer, unassigned; isomer 1) [38, isomer 1]: the “% inhibition of PDE9 at 10 microM” value at PDE9 was −1%.
In the case of `COc1ccc(Cn2c(C)cn3c([C@@H]4CCO[C@@H]4C)ncc3c2=O)cc1` (single isomer, unassigned; isomer 1) [55, isomer 1], the 50% inhibitory concentration (IC50) at PDE1B was determined as 10 nM. The “% inhibition of PDE9 at 10 microM” value on PDE9 was 18%.
Take `Cc1cn2c(N3CCC4OCCC43)ncc2c(=O)n1Cc1cccc(F)c1` (single isomer, unassigned; isomer 1) [99, isomer 1]: the values for the IC50 on PDE1A, on PDE1B and on PDE1C were 241 nM, 134 nM and 27 nM, respectively. Moreover, the “% inhibition of PDE9 at 10 microM” value at PDE9 is recorded as 9%.
On to `Cc1cn2c([C@@H]3CCCOC3)ncc2c(=O)n1Cc1cccc(F)c1` (single isomer, unassigned; isomer 1) [100, isomer 1], for which the IC50 amounted to 306 nM on PDE1A, 223 nM on PDE1B and 43 nM against PDE1C. In addition, on PDE9, the “% inhibition of PDE9 at 10 microM” value amounted to 11%.
Take `Cc1cn2c([C@H]3CCCCO3)ncc2c(=O)n1Cc1cccc(F)c1` (single isomer, unassigned; isomer 2) [30, isomer 2]: at PDE1A, the “PDE1A, % inhibition (at 1 μM)” value was 27%. The “PDE1B, % inhibition (at 1 μM)” value on PDE1B (at 1 μM) came to 40%. On PDE1C, this compound showed an IC50 of 215 nM. For the same compound, on PDE9, the “% inhibition of PDE9 at 10 microM” value is reported as 28%.
With `Cc1cn2c([C@H]3CCOC3)ncc2c(=O)n1Cc1cccc(F)c1` (single isomer, unassigned; isomer 2) [31, isomer 2], the IC50 on PDE1A was 347 nM; at PDE1B it was 138 nM; at PDE1C it was 31 nM. Also, the “% inhibition of PDE9 at 10 microM” value on PDE9 is recorded as 5%.
The matching figures for `Cc1cn2c(C3(C)CCOC3)ncc2c(=O)n1Cc1cccc(F)c1` (single isomer, unassigned; isomer 2) [32, isomer 2]: 401 nM, 170 nM, 40 nM and 16%.
The matching figures for `Cc1cn2c([C@@H]3C[C@H]3C)ncc2c(=O)n1Cc1cccc(F)c1` (single isomer, unassigned; isomer 2) [35, isomer 2]: 364 nM, 166 nM, 41 nM and 15%.
In the case of `Cc1cn2c([C@H]3CCO[C@@H]3C)ncc2c(=O)n1Cc1cccc(F)c1` (single isomer, unassigned; isomer 2) [36, isomer 2], the IC50 against PDE1A was 282 nM; on PDE1B, 107 nM. For the same compound, the “% inhibition of PDE9 at 10 microM” value at PDE9 came out at 11%.
Turning to `Cc1cn2c(C3C[C@@H]3F)ncc2c(=O)n1Cc1cccc(F)c1` (single isomer, unassigned; isomer 2) [37, isomer 2], at PDE1C, half-maximal inhibition (IC50) was put at 55 nM. In addition, the “% inhibition of PDE9 at 10 microM” value on PDE9 was 13%.
The matching figures for `Cc1cn2c(C3C[C@H]3F)ncc2c(=O)n1Cc1cccc(F)c1` (single isomer, unassigned; isomer 2) [38, isomer 2]: 153 nM and 2%.
For the compound `COc1ccc(Cn2c(C)cn3c([C@@H]4CCO[C@H]4C)ncc3c2=O)cc1` (single isomer, unassigned; isomer 2) [55, isomer 2], on PDE1B, 64 nM corresponded to half-maximal inhibition (IC50). Moreover, the “% inhibition of PDE9 at 10 microM” value at PDE9 is −13%.
In the case of `Cc1cn2c(N3CCC4OCCC43)ncc2c(=O)n1Cc1cccc(F)c1` (single isomer, unassigned; isomer 2) [99, isomer 2], the “PDE1A, % inhibition (at 10 μM)” value at PDE1A (at 10 μM) is on record as 47%. Further, the IC50 on PDE1B worked out at 760 nM; at PDE1C, 119 nM. In addition, on PDE9, the “% inhibition of PDE9 at 10 microM” value was 6%.
As for `Cc1cn2c([C@H]3CCCOC3)ncc2c(=O)n1Cc1cccc(F)c1` (single isomer, unassigned; isomer 2) [100, isomer 2], the IC50 against PDE1A amounted to 333 nM; on PDE1B, 93 nM; at PDE1C, 33 nM. For the same compound, the “% inhibition of PDE9 at 10 microM” value on PDE9 is −21%.
On to `Cc1cn2c([C@@H]3CCO[C@H]3C)ncc2c(=O)n1Cc1cccc(F)c1` (single isomer, unassigned; isomer 3) [36, isomer 3], for which the IC50 at PDE1A was 77 nM; at PDE1B, 21 nM. In addition, the “% inhibition of PDE9 at 10 microM” value at PDE9 is −10%.
On PDE1B, `COc1ccc(Cn2c(C)cn3c([C@@H]4CCO[C@H]4C)ncc3c2=O)cc1` (single isomer, unassigned; isomer 3) [55, isomer 3] had an IC50 of 3 nM.
Consider `COc1ccc(Cn2c(C)cn3c([C@H]4CCO[C@H]4C)ncc3c2=O)cc1` (single isomer, unassigned; isomer 4) [55, isomer 4], for which the IC50 at PDE1B amounted to 208 nM. The “% inhibition of PDE9 at 10 microM” value on PDE9 is recorded as 1%.
For `COc1cc(Cn2c(C)cn3c(C4CCOCC4)ncc3c2=O)ccc1Cl` [Example 48, 7-(4-chloro-3-methoxybenzyl)-6-methyl-3-(tetrahydro-2H-pyran-4-yl)imidazo[1,5-a]pyrazin-8(7H)-one], the inhibition at 1 µM was found to be 54% at PDE1B (read-out: PDE1B, % inhibition (at 1 μM)) and 34% at PDE1C (read-out: PDE1C, % inhibition (at 1 μM)). Also, the inhibition at 10 µM against PDE9 stood at 10%.
Take `COc1ccc(Cn2c(C)cn3c(C4(C)CCN(C)CC4)ncc3c2=O)cc1` [Example 73, 3-(1,4-dimethylpiperidin-4-yl)-7-(4-methoxybenzyl)-6-methylimidazo[1,5-a]pyrazin-8(7H)-one]: the IC50 against PDE1A came out at 1920 nM; on PDE1B, 1450 nM; on PDE1C, 2450 nM.
The matching figures for `COc1ccc(Cn2c(C)cn3c(C(C)C)ncc3c2=O)cc1` [Example 77, 3-isopropyl-7-(4-methoxybenzyl)-6-methylimidazo[1,5-a]pyrazin-8(7H)-one]: 13 nM, 7 nM and 20 nM.
For `COc1ccc(Cn2c(C)cn3c(C(C)(C)F)ncc3c2=O)cc1` [Example 87, 3-(2-fluoropropan-2-yl)-7-(4-methoxybenzyl)-6-methylimidazo[1,5-a]pyrazin-8(7H)-one], the inhibition at 10 µM on PDE9 is 10%.
As for `COc1ccc(Cn2c(C)cn3c(NC4CCOC4)ncc3c2=O)cc1` (centres unmarked) [Example 94, 7-(4-methoxybenzyl)-6-methyl-3-((tetrahydrofuran-3-yl)amino)imidazo[1,5-a]pyrazin-8(7H)-one], 2520 nM corresponded to half-maximal inhibition against PDE1A (IC50). Further, the inhibition at 10 µM against PDE9 is -5%.
As to `COc1ccc(Cn2c(C)cn3c(N4CCOC[C@@H]4C)ncc3c2=O)cc1` [Example 96, (S)-7-(4-methoxybenzyl)-6-methyl-3-(3-methylmorpholino)imidazo[1,5-a]pyrazin-8(7H)-one], the IC50 at PDE1A amounted to 48 nM; against PDE1B, 38 nM; against PDE1C, 51 nM.
